# From US10273461B2, “Employing human adipose-derived stem cells to propagate serum-derived hepatitis C virus and use thereof” (FRONTIER BIO-DRUG DEVELOPMENT LIMITED, priority 2015, dated 2019)
# Tested on: HCVser-1b
# Assay: Drug inhibition assay in HCVser-infected hADSC
# Format: cell-based, hepatitis C virus
# Details: p4-5 hADSC, graded concentrations, 21 days' cell lysates, qRT-PCR, IFNα as 16 h pretreatment
row,Molecule,"HCV replication (viral 5'-UTR transcripts, fraction inhibition vs vehicle control)"
1,NC(=O)c1ncn([C@@H]2O[C@H](CO)[C@@H](O)[C@H]2O)n1 [ribavirin],inhibited in a dose-responsive manner
2,IFNα,inhibited in a dose-responsive manner
3,cyclosporine A,inhibited in a dose-responsive manner
